Assay results taken from ChEMBL document CHEMBL1255340, “In vitro activities of the Rx-01 oxazolidinones against hospital and community pathogens” (2008).
“And” between values parts separate entries of the source, which are not always exact repeats. Identical values can stand only once.

What was measured:
Format in all cases: functional
Enterococcus faecium [1] = assay: Antimicrobial activity against Enterococcus faecium A5960
Enterococcus faecium [2] = assay: Antimicrobial activity against Enterococcus faecium A9621 by broth microdilution method
Staphylococcus capitis = assay: Antimicrobial activity against Staphylococcus capitis A8935
Staphylococcus aureus [3] = assay: Antimicrobial activity against Staphylococcus aureus A7819 harboring G2576U mutation in 23S rRNA
Staphylococcus aureus [4] = assay: Antimicrobial activity against Staphylococcus aureus A7820
[5] = tested on: Staphylococcus epidermidis; assay: Antimicrobial activity against Staphylococcus epidermidis A8934
Streptococcus pneumoniae [6] = assay: Antimicrobial activity against Streptococcus pneumoniae harboring erm(B) gene by broth microdilution method; settings: Streptococcus pneumoniae; read-out: MIC
Staphylococcus aureus [7] = assay: Antimicrobial activity against methicillin-resistant Staphylococcus aureus BK 11118
Enterococcus faecium [8] = assay: Antimicrobial activity against Enterococcus faecium A8130
Staphylococcus aureus [9] = assay: Antimicrobial activity against Staphylococcus aureus A7817
Enterococcus faecium [10] = assay: Antimicrobial activity against Enterococcus faecium A6349
Streptococcus pneumoniae [11] = assay: Antimicrobial activity against Streptococcus pneumoniae nosocomial isolate
Staphylococcus aureus [12] = assay: Antimicrobial activity against Staphylococcus aureus A8727
Enterococcus faecalis [13] = assay: Antimicrobial activity against Enterococcus faecalis A6350
Enterococcus faecium [14] = assay: Antimicrobial activity against Enterococcus faecium A9650
Staphylococcus aureus [15] = assay: Antimicrobial activity against Staphylococcus aureus pL150
Staphylococcus aureus [16] = assay: Antimicrobial activity against methicillin-resistant Staphylococcus aureus BK 11512
Streptococcus pneumoniae [17] = assay: Antimicrobial activity against Streptococcus pneumoniae harboring erm(B) and mef(A) gene
Staphylococcus hominis = assay: Antimicrobial activity against Staphylococcus hominis A7828
Chlamydia pneumoniae = assay: Antimicrobial activity against Chlamydophila pneumoniae isolated from human respiratory tract by broth microdilution method
Enterococcus faecium [18] = assay: Antimicrobial activity against Enterococcus faecium A6349 harboring G2576U mutation in 23S rRNA
Enterococcus faecalis [19] = assay: Antimicrobial activity against Enterococcus faecalis A7789
Moraxella catarrhalis = assay: Antimicrobial activity against Moraxella catarrhalis
Enterococcus faecalis [20] = assay: Antimicrobial activity against Enterococcus faecalis ATCC 29212
Streptococcus pneumoniae [21] = assay: Antimicrobial activity against Streptococcus pneumoniae harboring mef(A) gene
Streptococcus pneumoniae [22] = assay: Antimicrobial activity against Streptococcus pneumoniae 02J1175
Staphylococcus aureus [23] = assay: Antimicrobial activity against Staphylococcus aureus A8831 harboring U2500A mutation in 23S rRNA
Streptococcus pneumoniae [24] = assay: Antimicrobial activity against Streptococcus pneumoniae PU1071099 harboring 65WR66 deletion in ribosomal protein L4 by broth microdilution method
Staphylococcus aureus [25] = assay: Antimicrobial activity against methicillin resistant Staphylococcus aureus 67-0
Streptococcus pneumoniae [26] = assay: Antimicrobial activity against Streptococcus pneumoniae ribosomal mutant
Enterococcus faecium [27] = assay: Antimicrobial activity against Enterococcus faecium A8948
Chlamydia trachomatis = assay: Antimicrobial activity against Chlamydia trachomatis isolated from human respiratory tract by broth microdilution method
Staphylococcus aureus [28] = assay: Antimicrobial activity against Staphylococcus aureus A8761
Enterococcus faecium [29] = assay: Antimicrobial activity against Enterococcus faecium A8767
Staphylococcus aureus [30] = assay: Antimicrobial activity against Staphylococcus aureus pLXM1 harboring cfr gene
Enterococcus faecium [31] = assay: Antimicrobial activity against Enterococcus faecium A6345
Legionella pneumophila = assay: Antimicrobial activity against Legionella pneumophila isolated from human respiratory tract by broth microdilution method
Enterococcus faecalis [32] = assay: Antimicrobial activity against vancomycin-resistant Enterococcus faecalis 03B1069
Haemophilus influenzae [33] = assay: Antimicrobial activity against Haemophilus influenzae 54A1100
Enterococcus faecium [34] = assay: Antimicrobial activity against Enterococcus faecium A6348 harboring G2576U mutation in 23S rRNA
Enterococcus faecium [35] = assay: Antimicrobial activity against vancomycin-susceptible Enterococcus faecium nosocomial isolate by broth microdilution method
Enterococcus faecalis [36] = assay: Antimicrobial activity against Enterococcus faecalis ATCC 29212-P5 harboring G2576U mutation in 23S rRNA
Haemophilus influenzae [37] = assay: Antimicrobial activity against Haemophilus influenzae A1950
Staphylococcus aureus [38] = assay: Antimicrobial activity against Staphylococcus aureus A8833 harboring U2500A mutation in 23S rRNA
Staphylococcus aureus [39] = assay: Antimicrobial activity against Staphylococcus aureus ATCC 29213
Enterococcus faecium [40] = assay: Antimicrobial activity against Enterococcus faecium A5959
Streptococcus pneumoniae [41] = assay: Antimicrobial activity against Streptococcus pneumoniae 02J1258
Enterococcus faecalis [42] = assay: Antimicrobial activity against Enterococcus faecalis A5962
Enterococcus faecalis [43] = assay: Antimicrobial activity against Enterococcus faecalis A6343
Streptococcus pyogenes [44] = assay: Antimicrobial activity against Streptococcus pyogenes
Enterococcus faecium [45] = assay: Antimicrobial activity against vancomycin-resistant Enterococcus faecium nosocomial isolate
Streptococcus pyogenes [46] = assay: Antimicrobial activity against Streptococcus pyogenes harboring mef(A) gene
Staphylococcus aureus [47] = assay: Antimicrobial activity against methicillin-susceptible Staphylococcus aureus nosocomial isolate
[48] = Streptococcus pneumoniae, read-out: MIC
[49] = Chlamydia trachomatis, read-out: MIC
[50] = Legionella pneumophila, read-out: MIC
[51] = Enterococcus faecium, read-out: MIC
[52] = Streptococcus pyogenes, read-out: MIC

Measured: MIC

CC(=O)NC[C@H]1CN(c2ccc(-c3ccc(CNCc4cnn[nH]4)cc3)c(F)c2)C(=O)O1 [RADEZOLID]
1 mg/L: Staphylococcus aureus [7] | Staphylococcus aureus [15] | Chlamydia pneumoniae | Staphylococcus aureus [25] | Chlamydia trachomatis | Legionella pneumophila; [50] | Enterococcus faecalis [36] | Haemophilus influenzae [37] | Staphylococcus aureus [39] | Enterococcus faecalis [42]
4 mg/L: Enterococcus faecium [1] | Enterococcus faecium [2] | Staphylococcus aureus [12] | Enterococcus faecalis [19] | Enterococcus faecium [31] | Enterococcus faecium [34] | Enterococcus faecium [40] | Enterococcus faecalis [43]
16 mg/L: Staphylococcus aureus [3] | Staphylococcus aureus [4] | Staphylococcus aureus [28]
32 mg/L: Staphylococcus aureus [9] | Staphylococcus aureus [38]
8 mg/L: Staphylococcus hominis
0.5 mg/L: Enterococcus faecium [10] | Enterococcus faecium [14] | Enterococcus faecium [18] | Moraxella catarrhalis | Streptococcus pneumoniae [24] | Chlamydia trachomatis; [49] | Enterococcus faecalis [32] | Haemophilus influenzae [33] | Enterococcus faecium [35]
0.125 mg/L: Streptococcus pneumoniae [11]; [48] | Streptococcus pneumoniae [21]; [48]
2 mg/L: [5] | Enterococcus faecium [8] | Enterococcus faecalis [13] | Staphylococcus aureus [16] | Enterococcus faecium [29] | Staphylococcus aureus [30] | Legionella pneumophila
64 mg/L: Staphylococcus aureus [23]
0.25 mg/L: Streptococcus pneumoniae [11] | Streptococcus pneumoniae [21] | Streptococcus pneumoniae [22] | Streptococcus pneumoniae [41]
≤ 0.25 mg/L: Staphylococcus capitis | Streptococcus pneumoniae [6] | Streptococcus pneumoniae [17] | Moraxella catarrhalis; Moraxella catarrhalis, read-out: MIC | Enterococcus faecalis [20] | Streptococcus pneumoniae [26] | Enterococcus faecium [27] | Enterococcus faecium [35]; [51]

CC(=O)NC[C@H]1CN(c2ccc(N3CCOCC3)c(F)c2)C(=O)O1 [LINEZOLID]
128 mg/L: Staphylococcus aureus [23]
16 mg/L: Staphylococcus capitis | Enterococcus faecium [10] | Enterococcus faecium [14] | Enterococcus faecium [18] | Chlamydia trachomatis | Staphylococcus aureus [28] | Haemophilus influenzae [33] | Haemophilus influenzae [37]
2 mg/L and 4 mg/L: Streptococcus pyogenes [44] | Streptococcus pyogenes [46]
4 mg/L: Legionella pneumophila; [50] | Enterococcus faecium [45] | Enterococcus faecium [35]; [51]
1 mg/L: Chlamydia pneumoniae
32 mg/L: [5] | Enterococcus faecium [8] | Enterococcus faecium [31] | Enterococcus faecalis [36] | Enterococcus faecium [40] | Enterococcus faecalis [42] | Enterococcus faecalis [43]
2 mg/L: Streptococcus pyogenes [44]; [52] | Enterococcus faecium [45]; [51] | Streptococcus pyogenes [46]; [52]
8 mg/L: Staphylococcus aureus [12] | Enterococcus faecium [27] | Chlamydia trachomatis; [49] | Enterococcus faecium [29] | Staphylococcus aureus [30] | Legionella pneumophila | Enterococcus faecium [35]
0.25 mg/L: Streptococcus pneumoniae [22]
64 mg/L: Enterococcus faecium [1] | Enterococcus faecium [2] | Staphylococcus aureus [3] | Staphylococcus aureus [4] | Staphylococcus aureus [9] | Staphylococcus hominis | Enterococcus faecalis [19] | Enterococcus faecium [34] | Staphylococcus aureus [38]

CC[C@H]1OC(=O)[C@H](C)C(=O)[C@H](C)[C@@H](O[C@@H]2O[C@H](C)C[C@H](N(C)C)[C@H]2O)[C@](C)(OC)C[C@@H](C)C(=O)[C@H](C)[C@H]2N(CCCCn3cnc(-c4cccnc4)c3)C(=O)O[C@]12C [TELITHROMYCIN]
>=0.06 ug ml-1 and 0.125 ug ml-1: Staphylococcus aureus [47]
